A value given as a limit tells only on which side of the number the result lay.

The values below come from patent US7164021B2, “Opiate analogs selective for the δ-opioid receptor” (The Curators of The University of Missouri, priority 2002, dated 2007).

Test [1] addresses δ receptor (Mus musculus, UniProt P32300). Conditions: experimental value of the reference opioid; cited from earlier work.
Test [2] concerns the target κ receptor (Mus musculus, UniProt P33534). Conditions: experimental value of the reference opioid; cited from earlier work.
For test [3], the target named is μ receptor (Rattus norvegicus, UniProt P33535). Conditions: experimental value of the reference opioid; cited from earlier work.
For test [4], the target named is delta receptor (Homo sapiens, UniProt P41143). Put plainly: Competitive analysis vs 3H-Bremazocine, delta receptor. The test is classed as binding.
For test [5], the target named is mu receptor (Homo sapiens, UniProt P35372). The test can be described thus: Competitive analysis vs 3H-Bremazocine, mu receptor. The test is classed as binding.
Test [6] has as its target κ receptor (Homo sapiens, UniProt P41145). Put plainly: Competitive analysis vs 3H-Bremazocine, κ receptor. It is filed as binding. Conditions: reference compound 3H-Bremazocine.

In the case of `CN1CC[C@]23c4c5ccc(O)c4OC2C(=O)C2(Cc4ccccc4C2)C[C@@]3(O)C1C5` (some centres unmarked) [SIOM, spiroindanyloxymorphone], in test [1], the “experimental affinity δ receptor (value in parenthesis)” value is listed as 8.77. The “experimental affinity κ receptor (value in parenthesis)” value in test [2] is on record as less than 6.00. Further, the “experimental affinity μ receptor (value in parenthesis)” value in test [3] is 7.48.
Consider `Oc1ccc2c3c1O[C@H]1c4[nH]c5ccccc5c4C[C@@]4(O)[C@@H](C2)N(CC2CC2)CC[C@]314` [NTI, naltrindole], for which the “experimental affinity δ receptor (value in parenthesis)” value in test [1] was 10.70. In test [2], the “experimental affinity κ receptor (value in parenthesis)” value is given as 7.18.
Take `Oc1cccc(-n2cnnc2-c2cccc(-c3ccccc3)c2)c1` [DST3-2]: the Ki in test [4] (competitive analysis, 1.64 nM 3H-Bremazocine, dose response curve FIG. 7A, read-out: Representative Ki δ (delta binding affinity)) turned out to be 140 nM; in test [5] (competitive analysis, 1.64 nM 3H-Bremazocine, dose response curve FIG. 7B, read-out: Representative Ki μ), 1000 nM. Further, the “% Inhibition δ” value in test [4] (competitive analysis, reference compound 3H-Bremazocine) was determined as 84%. Moreover, the delta/mu selectivity in test [4] (ratio delta vs mu binding) is 10/1. In test [5], the “% Inhibition μ” value stood at 84%. For the same compound, the “% Inhibition κ” value in test [6] came to 42%.
